How the values were obtained:
[1] = target: T1, Am2136 WT (Akkermansia muciniphila, UniProt B2UPR7); experiment: Nucleotide binding affinity by intrinsic fluorescence; settings: WT dialyzed
T1 construct: The coding region (residue Q20-L756) of Am2136 without signal peptide was based on UniProt; 6XHis (N); made in house; host or cells: E. coli BL21 (DE3)
Procedure: The nucleotide binding ability was determined on Fluorescence Spectrometer Duetta (HORIBA) by measuring the change of peak intensity. The fluorescence was excited at 286 nm and emitted at 336 nm. And the measurement was processed under 400 V voltage with 2.5 nm excitation slit and 5 nm emission slit. […] The sample was incubated at 4°C for 5 min before testing.

[2] = target: T2, Am2136 WT dialyzed (Akkermansia muciniphila, UniProt B2UPR7); experiment: Metal ion effect on enzyme hydrolysis activity; format: biochemical; settings: for Vmax / kcat/Km: WT dialyzed + 2 mM metal ion, substrate pNP-β-GlcNAc; for effect of metal ion on Am2136 catalytic activity: 2 mM metal ion
T2 construct: The coding region (residue Q20-L756) of Am2136 without signal peptide was based on UniProt; 6XHis (N); made in house; host or cells: E. coli BL21 (DE3)
T2 sequence (B2UPR7 20-756): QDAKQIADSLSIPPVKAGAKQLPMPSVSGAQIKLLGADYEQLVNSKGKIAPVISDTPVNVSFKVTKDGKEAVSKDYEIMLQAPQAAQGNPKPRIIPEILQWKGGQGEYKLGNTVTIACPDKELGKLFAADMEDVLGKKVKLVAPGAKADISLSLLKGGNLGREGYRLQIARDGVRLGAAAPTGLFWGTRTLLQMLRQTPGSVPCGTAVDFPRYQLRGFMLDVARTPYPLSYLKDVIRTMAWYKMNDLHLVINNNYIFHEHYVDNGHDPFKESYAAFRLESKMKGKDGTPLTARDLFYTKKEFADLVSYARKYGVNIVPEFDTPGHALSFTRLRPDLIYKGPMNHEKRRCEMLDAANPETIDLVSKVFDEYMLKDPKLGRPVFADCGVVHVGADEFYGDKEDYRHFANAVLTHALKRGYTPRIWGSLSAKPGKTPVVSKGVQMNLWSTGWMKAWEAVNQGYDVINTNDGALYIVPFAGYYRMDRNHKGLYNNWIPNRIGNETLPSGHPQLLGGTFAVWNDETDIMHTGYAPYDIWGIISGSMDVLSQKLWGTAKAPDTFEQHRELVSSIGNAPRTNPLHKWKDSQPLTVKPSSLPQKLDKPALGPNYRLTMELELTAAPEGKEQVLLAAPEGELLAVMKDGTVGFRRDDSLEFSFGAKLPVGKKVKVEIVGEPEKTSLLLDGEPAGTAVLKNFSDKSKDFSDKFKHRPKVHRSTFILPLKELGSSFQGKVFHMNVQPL
Procedure: The purified protein was added with the final concentration of 5 mM EDTA and incubated on ice for 20 min. Then the protein was dialyzed with the buffer solution (2 mM EDTA, 25 mM Tris, 150 mM NaCl, 5% Glycerol, pH 8.0) at 4°C for 4 h at a volume ratio of 1:350. After that, the protein was dialyzed with the EDTA-free buffer for 4 h and repeated twice.
The dialyzed protein was incubated with other metal ions on ice for 5 min. The 50 μL reaction mixture contains 2 μM protein, 0.125–4 mM p-nitrophenyl (pNP)-β-GlcNAc, 2 mM metal ions (MgCl2, CaCl2, CuCl2, ZnCl2, CoCl2), 25 mM Tris pH 8.0 and 150 mM NaCl.

[3] = target: T3, Am2136 (Akkermansia muciniphila, UniProt B2UPR7); experiment: Oligosaccharide hydrolysis, released GlcNAc by HPLC-QqQ-MS; format: biochemical; settings: 1.2 mM substrate, 4 μM Am2136, 37°C, 240 min
T3 construct: The coding region (residue Q20-L756) of Am2136 without signal peptide was based on UniProt; 6XHis (N); made in house; host or cells: E. coli BL21 (DE3)
T3 sequence (B2UPR7 20-756): as above
Procedure: The 30 μL reaction mixture contains 1.2 mM oligosaccharides (Sigma), 4 μM proteins, 150 mM NH4Ac pH 8.0. The qualitative and quantitative analyses were performed by high-performance liquid chromatography-tandem triple quadrupole mass spectrometry (HPLC-QqQ-MS) (Agilent 1260 HPLC system and 6460 QqQ system, Agilent Technologies, USA). The separation was performed on a Chromplus C18 column (4.6 × 250 mm, 5 μm) at 25°C. The samples were isocratic eluted with 0.1% formic acid in water and acetonitrile (80:20, v/v) at a flow rate of 0.5 mL/min with an injection volume of 5 μL. The mass spectrometer was operated in the electron spray ionization mode with drying gas temperature of 300°C, N2 gas flow at 11 L/min, nebulizer pressure of 15 psi, and capillary voltage of 4000 V.
Qualitative analysis was carried out by MS2 full-scan mode, while quantitative analysis was performed by multiple reaction monitoring (MRM) in positive ionization mode. Amygdalin (IS) was used as internal standard, and the sample was prepared by adding 20 μL internal standard (116.96 μM) and 170 μL water to 10 μL reaction mixture. The ion transitions were chosen as m/z 222.0→203.9 for GlcNAc and m/z 458.1→296.0 for IS. The fragmentor voltage values of GlcNAc and IS were set to 70 and 130 V, respectively. The collision energies of GlcNAc and IS were set to 1 and 10 eV, respectively. The signal acquisition and peak integration were performed using the MassHunter Qualitative Analysis Software (Agilent, USA). The concentration of GlcNAc in each sample was determined by using the established calibration curve (y = 0.768x + 2.4873) made from the standard compound.

T1 sequence (B2UPR7 20-756): as above

[Ca+2].[Cl-].[Cl-] [Ca^2+, CaCl2]
effect of ion on GDP binding to Am2136 [1]: did not exhibit obvious behavioral effect on GDP binding
Vmax [2]: 447 ± 14 µmol/min
kcat/Km [2]: 128000 ± 2000 M⁻¹ s⁻¹

[Cl-].[Cl-].[Co+2] [Co^2+, CoCl2]
effect of metal ion on Am2136 catalytic activity [2]: significant inhibitory effects

[Cl][Cu][Cl] [Cu^2+, CuCl2]
effect of metal ion on Am2136 catalytic activity [2]: significant inhibitory effects

CC(=O)N[C@H]1[C@H](OC[C@H]2O[C@@H](O[C@H]3[C@H](O)[C@@H](O)C(O)O[C@@H]3CO)[C@H](O)[C@@H](O)[C@H]2O)O[C@H](CO)[C@@H](O)[C@@H]1O (stereo partly drawn) [GlcNAc-(β1,6)Gal-(β1,4)Glc]
GlcNAc released ([3]; with 1 mM GDP): 712.55 µM
GlcNAc released ([3]; without GDP): 549 µM

CC(=O)N[C@H]1[C@@H](Oc2ccc([N+](=O)[O-])cc2)O[C@H](CO[C@@H]2O[C@H](CO)[C@@H](O)[C@H](O)[C@H]2NC(C)=O)[C@H](O)[C@@H]1O [GlcNAc-(β1,6)GalNAc-α-pNP]
GlcNAc released ([3]; with 1 mM GDP): 451.25 µM
GlcNAc released ([3]; without GDP): 308 µM

COC1O[C@H](CO)[C@H](O)[C@H](O[C@@H]2O[C@H](CO)[C@@H](O)[C@H](O)[C@H]2NC(C)=O)[C@H]1O (stereo partly drawn) [Methyl GlcNAc-(β1,3)Gal]
GlcNAc released ([3]; with 1 mM GDP): 610.53 µM
GlcNAc released ([3]; without GDP): 448 µM

[Cl-].[Cl-].[Mg+2] [Mg^2+, MgCl2]
effect of ion on GDP binding to Am2136 [1]: did not exhibit obvious behavioral effect on GDP binding
Vmax [2]: 435 ± 9 µmol/min
kcat/Km [2]: 151000 ± 3000 M⁻¹ s⁻¹

[Cl-].[Cl-].[Zn+2] [Zn^2+, ZnCl2]
effect of metal ion on Am2136 catalytic activity [2]: significant inhibitory effects

— article PMC9673926, “Nucleotide binding as an allosteric regulatory mechanism for Akkermansia muciniphila β-N-acetylhexosaminidase Am2136” (Gut Microbes, 2022)
